Laboratory results taken from article PMC2225439, “Amyloid as a Depot for the Formulation of Long-Acting Drugs” (PLoS Biology, 2008).
*1 amine or outer side, *2 acyl side, *3 side chain or, on linkers, in order; H or OH if unused. Where a SMILES comes first, the peptide text is derived from it. Side-chain parts run from the residue outwards. [ ]: non-standard residue; d: D form. The star is where a group is joined. dPhe(4-NHCONH2) = NC(=O)Nc1ccc(C[C@@H](N)C(=O)O)cc1; Dihydroorotyl(S) = O=C1C[C@@H](C(=O)*)NC(=O)N1; dPhe(4-NH2) = Nc1ccc(C[C@@H](N)C(=O)O)cc1; dPhe(4-Cl) = N[C@H](Cc1ccc(Cl)cc1)C(=O)O; Phe(4-NH2) = Nc1ccc(C[C@H](N)C(=O)O)cc1; d2Nal = N[C@H](Cc1ccc2ccccc2c1)C(=O)O; Lys(iPr) = CC(C)NCCCC[C@H](N)C(=O)O; NHCH2CH2OCH2CH2OEt = CCOCCOCCN*; d3Pal = N[C@H](Cc1cccnc1)C(=O)O; Methoxycarbamoyl = CONC(=O)*; Nicotinoyl = O=C(c1cccnc1)*; PEG3 = NCCOCCOCCOCCC(=O)O; CO = O=C([*:1])[*:2]; Butyryl = CCCC(=O)*

Key:
[1] = Thio T binding (amyloid fibril formation); format: physicochemical; set-up: key to Thio T Binding: b, binding; n, not binding; settings: 1 mg/ml in 5% D-mannitol, 0.01% sodium azide, room temperature without stirring, monitored daily over 21 d; fluorescence ex 450 nm / em 482 nm; three independent experiments
Description: The kinetics of fibril formation in vitro is generally a slow process over several days or weeks, and can be monitored by the increase of fluorescence intensity of the cross-β-sheet–sensitive dye, Thio T [15]. Thio T fluorescence is thereby insignificant during the initial incubation period of amyloid aggregation due to the nonexistence of Thio T–sensitive β-sheet aggregates. After the initial phase, a time-dependent increase of fluorescence intensity is observed until a maximum intensity is reached, at which time maximal fibril formation has occurred. […] For the Thio T binding studies, all GnRH analogs were incubated at room temperature at a concentration of 1 mg/ml in 5% D-mannitol, conditions identical to the formulation used in the animal experiments. In addition, 0.01% sodium azide was added. The Thio T fluorescence was monitored daily for all analogs over a period of 21 d (Figure 1).
(§1) GnRH analogs were dissolved in a glass tube in 1 ml of 5% D-mannitol and 0.01% sodium azide at a concentration of 1 mg/ml. The GnRH analogs were then incubated at room temperature without stirring. The fibril formation was monitored by EM, CR, and time-resolved by Thio T binding studies. Three independent experiments were performed for each sample.
A 10-μl aliquot of peptide sample was diluted into 500 μl of water with 5% D-mannitol containing 0.01% (w/v) sodium azide. The solution was mixed with 10 μl of 1 mM Thio T prepared in the same solution. Fluorescence was measured immediately after addition of Thio T. The experiment was measured on a spectrofluorimeter (Photon Technology International) with excitation at 450 nm and emission at 482 nm. The fluorescence intensity at 482 nm was plotted against incubation time (day). A rectangular 10-mm quartz microcuvette was used. Three independent experiments were performed for each sample.

Congo red (CR) binding = format: physicochemical; set-up: key to Congo Red: b, binding; n, not binding; settings: analogs incubated for 30 d, 1 mg/ml in 5% D-mannitol, 0.01% sodium azide, room temperature; UV 300–700 nm and by eye; three independent experiments
Description: To confirm amyloid formation by GnRH analogs, CR binding was measured. CR, like Thio T, is a dye routinely used to detect β-sheet–rich assemblies. CR binding can be measured by the “red shift” change of its absorption maximum from 490 to 540 nm, by an increase of the dye's molar absorptivity, and in favorable cases by eye. All three types of measurements were performed with GnRH analogs incubated for 30 d. […] However, five short-acting GnRH analogs, i.e., S3, S4, S6, S10, and S11, bind CR, showing that some short-acting GnRH-analogs are able to form amyloids after prolonged incubation (see also below). In contrast to short-acting analogs, all long-acting analogs bind CR.
as §1
A 5-μl aliquot of peptide sample was mixed with 80 μl of PBS buffer containing 10% ethanol. Then 15 μl of a 100 μM CR solution (filtered through 0.2-μm filter) in PBS containing 10% ethanol was added. After mixing, UV was measured from 300–700 nm. For the measurement of the CR-only spectrum, 15 μl of CR solution with 85 μl of PBS containing 10% ethanol was prepared. As a control, a 5-μl aliquot of GnRH analog mixed with 95 μl of PBS containing 10% ethanol was measured. Three independent experiments were performed for each sample. In addition to the UV measurements, pictures of the cuvette containing the peptide sample and CR were taken to visually show the CR binding to the amyloids.

[2] = Electron microscopy of negative-stained samples; format: physicochemical; set-up: key to EM^8 / EM^30: fib, fibrils; nfib, no fibrils; settings: for EM^8: electron microscopy at day 8 of incubation; for EM^8 / EM^30: 1 mg/ml in 5% D-mannitol, room temperature, at least two independent experiments; for EM^30: electron microscopy at day 30 of incubation
Description: To formally determine the formation of amyloid fibrils by GnRH analogs and to characterize other possible assemblies present in the sample, EM was done on all of the GnRH analogs. Since the EM analysis is for a qualitative interpretation only, amyloid fibrils and other small aggregates might be observed under the electron microscope even if only a minority of the sample forms fibrils. Samples were studied after 8 and 30 d of incubation. […] The fibrils show a wide variety of morphologies, comprising helical ultrastructures with varying degrees of lateral association. Furthermore, the fibrils are composed of one or more filaments, resulting in overall diameters ranging from approximately 6 to 12 nm. No oligomers are observed for the long-acting compounds at day 8 or at day 30 (Figures 2 and S2).
as §1
A 5-μl aliquot of peptide sample was diluted into 50 μl of water to a peptide concentration of approximately 50 μM, spotted on a glow-discharged, carbon-coated Formvar grid (Electron Microscopy Sciences), incubated for 5 min, washed with distilled water, and then stained with 1% (w/v) aqueous uranyl formate solution. Uranyl formate solutions were filtered through 0.2-μm sterile syringe filters (Corning) before use. EM analysis was performed using a JEOL JEM-100CXII electron microscope at 80 kV with nominal magnifications between 36,000 and 72,000. Images were recorded digitally by using the SIS Megaview III imaging system. At least two independent experiments were carried out for each sample.

[3] = Peptide release from amyloid (dialysis experiment); settings: 35 d; for stability of fibrils from release profile (in words): dialysis of 30-d-old samples
Description: Although amyloid fibrils are very stable, they must follow thermodynamic equilibrium conditions between fibril and monomer. […] A total of 200 μl of 30-d-old GnRH analog (in) was dialyzed 4 ml of 5% D-mannitol (out). A 3.5-kDa cutoff, which is twice the size of the peptides studied, was chosen to ensure that the released particles are most likely monomeric. The peptide release and the remaining aggregates were monitored by fluorescence over 35 d at room temperature.
A 200-μl aliquot of aged GnRH in solution conditions given above was transferred into a 0.6-ml Eppendorf tube with a hole in the cap. To study the effect of heparin on peptide release, a mixture of hormone analog and heparin (1:1 v/v) was incubated overnight in parallel with a half-diluted peptide fibril sample in 5% D-mannitol and 0.01% sodium azide. The hole in the cap of the Eppendorf tube was sealed with a 3.5-kDa molecular weight cutoff (MWCO) membrane. Next, the Eppendorf tube was inserted upside down into a 15-ml Falcon tube containing 4 ml of 5% D-mannitol in water and 0.01% sodium azide. Care was taken to make sure that the membrane was exposed to solutions both in and outside and that any bubbles at the membrane interface were removed. The tubes were then incubated at room temperature. To measure the remaining peptide concentration inside the 0.6-ml Eppendorf tube, a 5-μl aliquot was diluted into 500 μl water with 5% D-mannitol, 0.01% sodium azide, and the fluorescence was measured with excitation at 280 nm and emission in the range of 290–500 nm. The excitation slit width was 2 nm, and emission slit width was 11 nm. To determine the peptide concentration outside the membrane in the 15-ml tube, an aliquot of 250 μl of solution was taken from the releasing medium, diluted into 500 μl final volume by 5% D-mannitol, 0.01% sodium azide, and fluorescence was measured. Following spectra recording, the dialysis system was reassembled as described above. […] The normalized intensity maxima from inside and outside the membrane were plotted as a function of time and fit by an exponential function to extract the half-life of the fibrils and the K off, respectively. […] The extracted half-life, t 1/2, is the time taken, during which the fluorescence signal inside the 0.6-ml Eppendorf tube drops by 50%.

| Compound | Thio T Binding [1] | Congo Red (Congo red (CR) binding) | EM^8 [2] | EM^30 [2] | stability of fibrils from release profile (in words) [3] | also measured |
| --- | --- | --- | --- | --- | --- | --- |
| Ac-DNal-DCpa-DPal-Ser-Arg-DGlu(AA)-Leu-Arg-Pro-DAla-NH2 [S7, reference compound] | n | n | nfib | nfib |  | EM, formation of amyloid-like fibrils at day 30 (in words) ([2]; 30 d of incubation): do not form any detectable amyloid-like fibrils; t1/2 ([3]; half-life of fibrils: time in which fluorescence inside drops by 50%, dialysis of 30-d-old analog, 3.5-kDa MWCO, 5% D-mannitol, room temperature, exponential fit, 2 d = intrinsic diffusion of monomer): 48 h |
| CC(=O)N[C@H](Cc1ccc2ccccc2c1)C(=O)N[C@H](Cc1ccc(Cl)cc1)C(=O)N[C@H](Cc1cccnc1)C(=O)N[C@@H](CO)C(=O)N[C@@H](CCCCNC(=O)c1cccnc1)C(=O)N[C@H](CCCCNC(=O)c1cccnc1)C(=O)N[C@@H](CC(C)C)C(=O)N[C@@H](CCCCNC(C)C)C(=O)N1CCC[C@H]1C(=O)N[C@H](C)C(N)=O [S6, Ac-DNal-DCpa-DPal-Ser-Lys(Nic)-DLys(Nic)-Leu-ILys-Pro-DAla-NH2, reference compound] (Ac-[d2Nal][dPhe(4-Cl)][d3Pal]SK(Nicotinoyl)[dK](Nicotinoyl)L[Lys(iPr)]P[dA]-NH2) |  |  |  |  | form unstable fibrils |  |
| CCOCCOCCNC(=O)Nc1ccc(C[C@@H](NC(=O)[C@H](Cc2ccc(NC(=O)[C@@H]3CC(=O)NC(=O)N3)cc2)NC(=O)[C@H](CO)NC(=O)[C@@H](Cc2cccnc2)NC(=O)[C@@H](Cc2ccc(Cl)cc2)NC(=O)[C@@H](Cc2ccc3ccccc3c2)NC(C)=O)C(=O)N[C@@H](CC(C)C)C(=O)N[C@@H](CCCCNC(C)C)C(=O)N2CCC[C@H]2C(=O)N[C@H](C)C(N)=O)cc1 [S11, [DAph(CONH(C2H4O)2-C2H5]degarelix] (Ac-[d2Nal][dPhe(4-Cl)][d3Pal]S[Phe(4-NH2)](Dihydroorotyl(S))[dPhe(4-NH2)]([CO-NHCH2CH2OCH2CH2OEt])L[Lys(iPr)]P[dA]-NH2) |  |  |  |  | form unstable fibrils |  |
| CONC(=O)NCCOCCOCCOCCC(=O)Nc1ccc(C[C@H](NC(=O)[C@H](CO)NC(=O)[C@@H](Cc2cccnc2)NC(=O)[C@@H](Cc2ccc(Cl)cc2)NC(=O)[C@@H](Cc2ccc3ccccc3c2)NC(C)=O)C(=O)N[C@H](Cc2ccc(NC(N)=O)cc2)C(=O)N[C@@H](CC(C)C)C(=O)N[C@@H](CCCCNC(C)C)C(=O)N2CCC[C@H]2C(=O)N[C@H](C)C(N)=O)cc1 [S2, [Aph(CO-(C2H4O)3-C2H4-NH-CO-NH-OCH3)^5]degarelix] (Ac-[d2Nal][dPhe(4-Cl)][d3Pal]S[Phe(4-NH2)]([PEG3-Methoxycarbamoyl])[dPhe(4-NHCONH2)]L[Lys(iPr)]P[dA]-NH2) |  |  |  |  | form unstable fibrils |  |
| CCOCCOCCNC(=O)N[C@H](Cc1ccc2ccccc2c1)C(=O)N[C@H](Cc1ccc(Cl)cc1)C(=O)N[C@H](Cc1cccnc1)C(=O)N[C@@H](CO)C(=O)N[C@@H](Cc1ccc(NC(=O)[C@@H]2CC(=O)NC(=O)N2)cc1)C(=O)N[C@H](Cc1ccc(NC(=O)NOC)cc1)C(=O)N[C@@H](CC(C)C)C(=O)N[C@@H](CCCCNC(C)C)C(=O)N1CCC[C@H]1C(=O)N[C@H](C)C(N)=O [S3, des-Ac-[D-Aph(CO-NH-OCH3)^6]-C2H5-(C2H4O)2-NH-CO-degarelix] ({NHCH2CH2OCH2CH2OEt-CO}-[d2Nal][dPhe(4-Cl)][d3Pal]S[Phe(4-NH2)](Dihydroorotyl(S))[dPhe(4-NH2)](Methoxycarbamoyl)L[Lys(iPr)]P[dA]-NH2) |  |  |  |  | form very stable amyloids with very little peptide release |  |
| des-Ac-[Aph(CO-NH-OCH3)^5]-CH3-(CH2)2-CO-degarelix [L16] | b | b | fib | fib |  | EM, formation of amyloid-like fibrils at day 8 (in words) ([2]; 8 d of incubation): Short worm-like protofibrils |
| Ac-DNal-DCpa-DPal-Ser-Aph(Atz)-DAph(Atz)-Leu-ILys-Pro-DAla-NH2 [L19, reference compound] | b | b | fib | fib |  |  |
| CCCC(=O)N[C@H](Cc1ccc2ccccc2c1)C(=O)N[C@H](Cc1ccc(Cl)cc1)C(=O)N[C@H](Cc1cccnc1)C(=O)N[C@@H](CO)C(=O)N[C@@H](Cc1ccc(NC(=O)NOC)cc1)C(=O)N[C@H](Cc1ccc(NC(=O)NOC)cc1)C(=O)N[C@@H](CC(C)C)C(=O)N[C@@H](CCCCNC(C)C)C(=O)N1CCC[C@H]1C(=O)N[C@H](C)C(N)=O [S4, des-Ac-[Aph(CO-NH-OCH3)^5,D-Aph(CO-NH-OCH3)^6]-CH3-(CH2)2-CO-degarelix] (Butyryl-[d2Nal][dPhe(4-Cl)][d3Pal]S[Phe(4-NH2)](Methoxycarbamoyl)[dPhe(4-NH2)](Methoxycarbamoyl)L[Lys(iPr)]P[dA]-NH2) |  |  |  |  | form very stable amyloids with very little peptide release |  |
